In US8309718B2, “4-pyrazolyl-N-arylpyrimidin-2-amines and 4-pyrazolyl-N-heteroarylpyrimidin-2-amines as janus kinase inhibitors” (Incyte Corporation, priority 2007, dated 2012):

Molecular target: T1, human JAK2 (Homo sapiens, UniProt O60674)
T1 construct: JAK2 (a.a. 828-1132); His tag (N); made in house; host or cells: insect cells (baculovirus)
Experiment: In vitro JAK kinase assay (HTRF, phosphorylation of biotinylated peptide)
Type: biochemical
Conditions: catalytic domain a.a. 828-1132, 30 μM ATP, 500 nM peptide, room temperature 1 hr; read-out: JAK-2 IC50
Protocol: Compounds herein were tested for inhibitory activity of JAK targets according to the following in vitro assay described in Park et al, Analytical Biochemistry 1999, 269, 94-104. The catalytic domains of human JAK1 (a.a. 837-1142), JAK2 (a.a. 828-1132) and JAK3 (a.a. 781-1124) with an N-terminal His tag were expressed using baculovirus in insect cells and purified. The catalytic activity of JAK1, JAK2 or JAK3 was assayed by measuring the phosphorylation of a biotinylated peptide. The phosphorylated peptide was detected by homogenous time resolved fluorescence (HTRF). IC50s of compounds were measured for each kinase in the reactions that contain the enzyme, ATP and 500 nM peptide in 50 mM Tris (pH 7.8) buffer with 100 mM NaCl, 5 mM DTT, and 0.1 mg/mL (0.01%) BSA. The ATP concentration in the reactions was 90 μM for JAK1, 30 μM for Jak2 and 3 μM for JAK3. Reactions were carried out at room temperature for 1 hr and then stopped with 20 μL 45 mM EDTA, 300 nM SA-APC, 6 nM Eu-Py20 in assay buffer (Perkin Elmer, Boston, Mass.). Binding to the Europium labeled antibody took place for 40 minutes and HTRF signal was measured on a Fusion plate reader (Perkin Elmer, Boston, Mass.). Certain of the above compounds were tested according to this assay.

T1 sequence (O60674 828-1132): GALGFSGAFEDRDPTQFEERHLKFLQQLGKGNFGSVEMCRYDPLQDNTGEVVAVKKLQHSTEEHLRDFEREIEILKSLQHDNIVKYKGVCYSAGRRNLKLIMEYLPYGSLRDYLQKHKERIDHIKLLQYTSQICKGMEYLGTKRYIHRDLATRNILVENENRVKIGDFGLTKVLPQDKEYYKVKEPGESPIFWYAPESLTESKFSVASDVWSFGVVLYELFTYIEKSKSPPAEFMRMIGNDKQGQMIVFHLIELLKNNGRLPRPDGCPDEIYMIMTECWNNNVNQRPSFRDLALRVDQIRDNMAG

IC50, < 100 nM:
Cc1cnc(Nc2ccc(-c3cnco3)cc2)nc1-c1cnn(C(CC#N)C2CCCC2)c1 (racemic) [Example 74, 3-cyclopentyl-3-(4-(5-methyl-2-(4-(oxazol-5-yl)phenylamino)pyrimidin-4-yl)-1H-pyrazol-1-yl)propanenitrile]
N#CCC(C1CCCC1)n1cc(-c2ccnc(Nc3ccc(C(=O)N4CCN(CCO)CC4)cc3)n2)cn1 (racemic) [Example 121, 3-cyclopentyl-3-(4-(2-(4-(4-(2-hydroxyethyl)piperazine-1-carbonyl)phenylamino)pyrimidin-4-yl)-1H-pyrazol-1-yl)propanenitrile]
N#CCC(C1CCCC1)n1cc(-c2ccnc(Nc3ccc(NC(=O)CN4CC[C@@H](O)C4)cc3)n2)cn1 (stereo partly drawn) [Example 204, N-(4-(4-(1-(2-cyano-1-cyclopentylethyl)-1H-pyrazol-4-yl)pyrimidin-2-ylamino)phenyl)-2-((R)-3-hydroxypyrrolidin-1-yl)acetamide]
CN(C(=O)c1ccc(Nc2nccc(-c3cnn(C(CC#N)C4CCCC4)c3)n2)cc1)C1CCOCC1 (racemic) [Example 218, 4-(4-(1-(2-cyano-1-cyclopentylethyl)-1H-pyrazol-4-yl)pyrimidin-2-ylamino)-N-methyl-N-(tetrahydro-2H-pyran-4-yl)benzamide]
N#CCC(CC1CCN(C(=O)c2ccc(F)cc2F)CC1)n1cc(-c2ccnc(Nc3ccc(-n4cccn4)cc3)n2)cn1 (racemic) [Example 6, 3-(4-(2-(4-(1H-pyrazol-1-yl)phenylamino)pyrimidin-4-yl)-1H-pyrazol-1-yl)-4-(1-(2,4-difluorobenzoyl)piperidin-4-yl)butanenitrile]
N#CCC1(n2cc(-c3ccnc(Nc4cccc(-c5cnco5)c4)n3)cn2)CCN(C(=O)c2ccno2)CC1 (racemic) [Example 13, 2-(1-(isoxazole-5-carbonyl)-4-(4-(2-(3-(oxazol-5-yl)phenylamino)pyrimidin-4-yl)-1H-pyrazol-1-yl)piperidin-4-yl)acetonitrile]
N#CCC1(n2cc(-c3ccnc(Nc4ccc(C(N)=O)cc4)n3)cn2)CCN(S(=O)(=O)C2CC2)CC1 [Example 30, 4-(4-(1-(4-(cyanomethyl)-1-(cyclopropylsulfonyl)piperidin-4-yl)-1H-pyrazol-4-yl)pyrimidin-2-ylamino)benzamide]
CN1CCN(C(=O)c2cccc(Nc3nccc(-c4cnn(C(CC#N)C5CCCC5)c4)n3)c2)CC1 (racemic) [Example 137, 3-cyclopentyl-3-(4-(2-(3-(4-methylpiperazine-1-carbonyl)phenylamino)pyrimidin-4-yl)-1H-pyrazol-1-yl)propanenitrile]
COc1cnc(Nc2cccc(N3CCCS3(=O)=O)c2)nc1-c1cnn(C(CC#N)C2CC2)c1 (racemic) [Example 346, 3-cyclopropyl-3-[4-(2-{[3-(1,1-dioxidoisothiazolidin-2-yl)phenyl]amino}-5-methoxypyrimidin-4-yl)-1H-pyrazol-1-yl]propanenitrile]
N#CCC(C1CCCC1)n1cc(-c2ccnc(Nc3ccc(N4CCCC4=O)cc3)n2)cn1 (racemic) [Example 129, 3-cyclopentyl-3-(4-(2-(4-(2-oxopyrrolidin-1-yl)phenylamino)pyrimidin-4-yl)-1H-pyrazol-1-yl)propanenitrile]
COCC(C)NCC(=O)Nc1ccc(Nc2nccc(-c3cnn(C(CC#N)C4CCCC4)c3)n2)cc1 (mixture of isomers) [Example 211, N-(4-(4-(1-(2-cyano-1-cyclopentylethyl)-1H-pyrazol-4-yl)pyrimidin-2-ylamino)phenyl)-2-(1-methoxypropan-2-ylamino)acetamide]
COc1cnc(Nc2ccc(NC(C)=O)cc2)nc1-c1cnn(C(CC#N)C2CCCC2)c1 (racemic) [Example 103, N-(4-(4-(1-(2-cyano-1-cyclopentylethyl)-1H-pyrazol-4-yl)-5-methoxypyrimidin-2-ylamino)phenyl)acetamide]
N#CCC1(n2cc(-c3ccnc(Nc4cccc(N5CCCC5=O)c4)n3)cn2)CC(C#N)C1 (single isomer, unassigned) [Example 348, 3-(cyanomethyl)-3-[4-(2-{[3-(2-oxopyrrolidin-1-yl)phenyl]amino}pyrimidin-4-yl)-1H-pyrazol-1-yl]cyclobutanecarbonitrile]
CCS(=O)(=O)N1CC(CC#N)(n2cc(-c3ccnc(Nc4ccc(C(=O)N5C6CC7CC5CC(C6)O7)cc4)n3)cn2)C1 [Example 274, 1-(ethylsulfonyl)-3-(4-(2-(4-(2-oxa-6-azatricyclo[3.3.1.1(3,7)]dec-6-ylcarbonyl)phenyl)aminopyrimidin-4-yl)-1H-pyrazol-1-yl)azetidin-3-ylacetonitrile]
CN(C)S(=O)(=O)Nc1ccc(Nc2nccc(-c3cnn(C(CC#N)C4CCCC4)c3)n2)cc1 (racemic) [Example 186, NA-(4-(4-(1-(2-cyano-1-cyclopentylethyl)-1H-pyrazol-4-yl)pyrimidin-2-ylamino)phenyl)-N,N-dimethylsulfamide]
N#CCC(C1CCCC1)n1cc(-c2ccnc(Nc3cccc(C(=O)N4CCC(c5ccccc5)CC4)c3)n2)cn1 (racemic) [Example 155, 3-cyclopentyl-3-(4-(2-(3-(4-phenylpiperidine-1-carbonyl)phenylamino)pyrimidin-4-yl)-1H-pyrazol-1-yl)propanenitrile]
N#CCC(C1CCCC1)n1cc(-c2ccnc(Nc3cccc(C(=O)N4CCC4)c3)n2)cn1 (racemic) [Example 142, 3-(4-(2-(3-(azetidine-1-carbonyl)phenylamino)pyrimidin-4-yl)-1H-pyrazol-1-yl)-3-cyclopentylpropanenitrile]
COCC(C)NC(=O)c1ccc(Nc2ncc(C)c(-c3cnn(C(CC#N)C4CCCC4)c3)n2)cc1 (mixture of isomers) [Example 87, 4-(4-(1-(2-cyano-1-cyclopentylethyl)-1H-pyrazol-4-yl)-5-methylpyrimidin-2-ylamino)-N-(1-methoxypropan-2-yl)benzamide]
CCNCC(=O)Nc1cccc(Nc2nccc(-c3cnn(C(CC#N)C4CCCC4)c3)n2)c1 (racemic) [Example 243, N-(3-(4-(1-(2-cyano-1-cyclopentylethyl)-1H-pyrazol-4-yl)pyrimidin-2-ylamino)phenyl)-2-(ethylamino)acetamide]
N#CCC(C1CCCC1)n1cc(-c2ccnc(Nc3ccc(N4CCOC4=O)cc3)n2)cn1 (racemic) [Example 107, 3-cyclopentyl-3-(4-(2-(4-(2-oxooxazolidin-3-yl)phenylamino)pyrimidin-4-yl)-1H-pyrazol-1-yl)propanenitrile]
CC(=O)N[C@H]1CCN(C(=O)c2ccc(Nc3nccc(-c4cnn(C(CC#N)C5CCCC5)c4)n3)cc2)C1 (stereo partly drawn) [Example 222, N-((3S)-1-(4-(4-(1-(2-cyano-1-cyclopentylethyl)-1H-pyrazol-4-yl)pyrimidin-2-ylamino)benzoyl)pyrrolidin-3-yl)acetamide]
N#CCC1(n2cc(-c3ccnc(Nc4cccc(-c5nnn[nH]5)c4)n3)cn2)CCN(C(=O)c2ccno2)CC1 (racemic) [Example 14, 2-(4-(4-(2-(3-(1H-tetrazol-5-yl)phenylamino)pyrimidin-4-yl)-1H-pyrazol-1-yl)-1-(isoxazole-5-carbonyl)piperidin-4-yl)acetonitrile]
N#CCC1(n2cc(-c3ccnc(Nc4ccc(-c5cnco5)cc4)n3)cn2)CN(S(=O)(=O)C2CC2)C1 [Example 21, 2-(1-(cyclopropylsulfonyl)-3-(4-(2-(4-(oxazol-5-yl)phenylamino)pyrimidin-4-yl)-1H-pyrazol-1-yl)azetidin-3-yl)acetonitrile]
N#CCC(C1CCCC1)n1cc(-c2ccnc(Nc3cccc(C(=O)N4CCOCC4)c3)n2)cn1 (racemic) [Example 147, 3-cyclopentyl-3-(4-(2-(3-(morpholine-4-carbonyl)phenylamino)pyrimidin-4-yl)-1H-pyrazol-1-yl)propanenitrile]
CCN(CCCO)c1ccc(Nc2ncc(C)c(-c3cnn(C(CC#N)C4CCCC4)c3)n2)cc1 (racemic) [Example 80, 3-cyclopentyl-3-(4-(2-(4-(ethyl(3-hydroxypropyl)amino)phenylamino)-5-methylpyrimidin-4-yl)-1H-pyrazol-1-yl)propanenitrile]
CCS(=O)(=O)N1CC(CC#N)(n2cc(-c3ccnc(Nc4ccc(C(=O)N5CCC5)cc4)n3)cn2)C1 [Example 273, 2-(3-(4-(2-(4-(azetidine-1-carbonyl)phenylamino)pyrimidin-4-yl)-1H-pyrazol-1-yl)-1-(ethylsulfonyl)azetidin-3-yl)acetonitrile]
